Reference: the NIST ThermoML archive (doi:10.1021/acs.jced.9b00311)

Assay: xn = mol fraction of the nth substance listed
Conditions: Liquid; for speed of sound: Frequency=3 MHz, Pulse-echo method; for mass density: Vibrating tube method

CCCCCCCCCCCC [dodecane] + O=C=O
Conditions | mass density, 303.15 K [kg/m3] | mass density, 313.15 K [kg/m3] | speed of sound, 303.15 K [m/s] | speed of sound, 313.15 K [m/s]
10000 kPa, x2 = 0 | 748.5 | 741.6 | 1318.5 | 1281.7
10000 kPa, x2 = 0.2032 | – | – | 1245.6 | 1209.7
10000 kPa, x2 = 0.205 | 756.3 | 748.8 | – | –
10000 kPa, x2 = 0.3989 | – | – | 1152.2 | 1114.6
10000 kPa, x2 = 0.4 | 767.4 | 758.7 | – | –
10000 kPa, x2 = 0.6007 | – | – | 1011.6 | 969.6
10000 kPa, x2 = 0.6008 | 784.3 | 773.3 | – | –
10000 kPa, x2 = 0.7497 | 802.5 | 786.6 | – | –
10000 kPa, x2 = 0.7498 | – | – | 845.5 | 793.2
10000 kPa, x2 = 0.8528 | – | – | 680.5 | 630
10000 kPa, x2 = 0.853 | 815.6 | 790.9 | – | –
10000 kPa, x2 = 0.9348 | 817.8 | 771.4 | – | –
10000 kPa, x2 = 0.9771 | 801 | 721.2 | – | –
10000 kPa, x2 = 0.9877 | 790.6 | 689.4 | – | –
20000 kPa, x2 = 0 | 755.1 | 748.5 | 1372.4 | 1337.9
20000 kPa, x2 = 0.2032 | – | – | 1304.1 | 1269.6
20000 kPa, x2 = 0.205 | 763.6 | 756.5 | – | –
20000 kPa, x2 = 0.3989 | – | – | 1214.9 | 1180.3
20000 kPa, x2 = 0.4 | 776.3 | 768.1 | – | –
20000 kPa, x2 = 0.6007 | – | – | 1084.4 | 1046.4
20000 kPa, x2 = 0.6008 | 796.3 | 786.1 | – | –
20000 kPa, x2 = 0.7497 | 820.5 | 806.5 | – | –
20000 kPa, x2 = 0.7498 | – | – | 937 | 893.3
20000 kPa, x2 = 0.8528 | – | – | 800.1 | 751.2
20000 kPa, x2 = 0.853 | 844.1 | 824.1 | – | –
20000 kPa, x2 = 0.9348 | 868.5 | 838.9 | – | –
20000 kPa, x2 = 0.9771 | 883.1 | 842 | – | –
20000 kPa, x2 = 0.9877 | 887.1 | 841.4 | – | –
30000 kPa, x2 = 0 | 761.3 | 754.8 | 1421.4 | 1389.6
30000 kPa, x2 = 0.2032 | – | – | 1356.4 | 1322.9
30000 kPa, x2 = 0.205 | 770.5 | 763.6 | – | –
30000 kPa, x2 = 0.3989 | – | – | 1272 | 1238.8
30000 kPa, x2 = 0.4 | 784.3 | 776.4 | – | –
30000 kPa, x2 = 0.6007 | – | – | 1147.4 | 1112.9
30000 kPa, x2 = 0.6008 | 806.8 | 797.2 | – | –
30000 kPa, x2 = 0.7497 | 835.2 | 822.5 | – | –
30000 kPa, x2 = 0.7498 | – | – | 1010.4 | 971.4
30000 kPa, x2 = 0.8528 | – | – | 885.8 | 843.1
30000 kPa, x2 = 0.853 | 865.6 | 847.6 | – | –
30000 kPa, x2 = 0.9348 | 902.4 | 877.6 | – | –
30000 kPa, x2 = 0.9771 | 929.5 | 897.3 | – | –
30000 kPa, x2 = 0.9877 | 937.7 | 902.7 | – | –
40000 kPa, x2 = 0 | 766.9 | 760.8 | 1468.5 | 1436.8
40000 kPa, x2 = 0.2032 | – | – | 1404.4 | 1373.3
40000 kPa, x2 = 0.205 | 776.8 | 770.3 | – | –
40000 kPa, x2 = 0.3989 | – | – | 1323 | 1291
40000 kPa, x2 = 0.4 | 791.6 | 784.2 | – | –
40000 kPa, x2 = 0.6007 | – | – | 1204.4 | 1170.9
40000 kPa, x2 = 0.6008 | 816 | 807.2 | – | –
40000 kPa, x2 = 0.7497 | 847.6 | 836.1 | – | –
40000 kPa, x2 = 0.7498 | – | – | 1073.3 | 1037.1
40000 kPa, x2 = 0.8528 | – | – | 955.4 | 917.2
40000 kPa, x2 = 0.853 | 883.1 | 866.6 | – | –
40000 kPa, x2 = 0.9348 | 928.1 | 906.5 | – | –
40000 kPa, x2 = 0.9771 | 963.1 | 935.9 | – | –
40000 kPa, x2 = 0.9877 | 973.9 | 944.5 | – | –
50000 kPa, x2 = 0 | 772 | 766.3 | 1512.3 | 1481.5
50000 kPa, x2 = 0.2032 | – | – | 1449.9 | 1419.2
50000 kPa, x2 = 0.205 | 782.5 | 776.4 | – | –
50000 kPa, x2 = 0.3989 | – | – | 1370.3 | 1339.9
50000 kPa, x2 = 0.4 | 798.2 | 791.2 | – | –
50000 kPa, x2 = 0.6007 | – | – | 1256 | 1224.3
50000 kPa, x2 = 0.6008 | 824.4 | 816.1 | – | –
50000 kPa, x2 = 0.7497 | 858.7 | 848 | – | –
50000 kPa, x2 = 0.7498 | – | – | 1128.9 | 1095.2
50000 kPa, x2 = 0.8528 | – | – | 1015.3 | 979.7
50000 kPa, x2 = 0.853 | 898.1 | 882.5 | – | –
50000 kPa, x2 = 0.9348 | 950.3 | 929.7 | – | –
50000 kPa, x2 = 0.9771 | 990.1 | 965.6 | – | –
50000 kPa, x2 = 0.9877 | 1002.9 | 976.7 | – | –
60000 kPa, x2 = 0 | 776.8 | 771.5 | 1553.7 | 1524.2
60000 kPa, x2 = 0.2032 | – | – | 1492.5 | 1462.4
60000 kPa, x2 = 0.205 | 787.9 | 782.1 | – | –
60000 kPa, x2 = 0.3989 | – | – | 1414.9 | 1385.2
60000 kPa, x2 = 0.4 | 804.4 | 797.6 | – | –
60000 kPa, x2 = 0.6007 | – | – | 1303.2 | 1272.9
60000 kPa, x2 = 0.6008 | 832.1 | 824.2 | – | –
60000 kPa, x2 = 0.7497 | 868.7 | 858.7 | – | –
60000 kPa, x2 = 0.7498 | – | – | 1179.5 | 1147
60000 kPa, x2 = 0.8528 | – | – | 1068.3 | 1034.9
60000 kPa, x2 = 0.853 | 911.4 | 896.4 | – | –
60000 kPa, x2 = 0.9348 | 967.4 | 949.4 | – | –
60000 kPa, x2 = 0.9771 | 1012.8 | 990.3 | – | –
60000 kPa, x2 = 0.9877 | 1027.1 | 1003.1 | – | –
70000 kPa, x2 = 0 | 781.4 | 776.4 | 1593.3 | 1564.6
70000 kPa, x2 = 0.2032 | – | – | 1532.6 | 1503.9
70000 kPa, x2 = 0.205 | 793.2 | 787.4 | – | –
70000 kPa, x2 = 0.3989 | – | – | 1456.7 | 1427.5
70000 kPa, x2 = 0.4 | 810.2 | 803.6 | – | –
70000 kPa, x2 = 0.6007 | – | – | 1346.4 | 1317.9
70000 kPa, x2 = 0.6008 | 839.3 | 831.6 | – | –
70000 kPa, x2 = 0.7497 | 878 | 868.2 | – | –
70000 kPa, x2 = 0.7498 | – | – | 1225.4 | 1195.2
70000 kPa, x2 = 0.8528 | – | – | 1116.7 | 1084.8
70000 kPa, x2 = 0.853 | 923.3 | 908.7 | – | –
70000 kPa, x2 = 0.9348 | 983.5 | 966.6 | – | –
70000 kPa, x2 = 0.9771 | 1032.6 | 1011.6 | – | –
70000 kPa, x2 = 0.9877 | 1048.1 | 1025.8 | – | –
